Measurements published in US20190367516A1 (Bayer Pharma Aktiengesellschaft, priority 2015, published 2019).
Like-named read-outs stand apart in the source and are kept apart here.

Target: T1, human M2 receptor (Homo sapiens, UniProt P08172)
T1 sequence (P08172 1-466): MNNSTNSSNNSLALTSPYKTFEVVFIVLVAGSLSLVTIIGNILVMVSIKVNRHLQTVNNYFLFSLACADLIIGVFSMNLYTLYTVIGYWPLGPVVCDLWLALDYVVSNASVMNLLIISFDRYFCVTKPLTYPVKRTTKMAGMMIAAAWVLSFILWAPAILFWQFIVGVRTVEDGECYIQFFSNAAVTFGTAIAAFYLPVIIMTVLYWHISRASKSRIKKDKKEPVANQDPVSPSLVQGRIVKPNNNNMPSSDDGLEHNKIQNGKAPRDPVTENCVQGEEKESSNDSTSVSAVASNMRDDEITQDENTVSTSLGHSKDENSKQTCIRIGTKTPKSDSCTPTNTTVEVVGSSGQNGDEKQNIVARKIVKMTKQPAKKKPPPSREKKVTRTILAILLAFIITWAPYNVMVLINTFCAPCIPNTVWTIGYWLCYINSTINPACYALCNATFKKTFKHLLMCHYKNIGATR
Settings: for Emax: read-out: Efficiency, boosting of the acetylcholine effect at EC20 acetylcholine concentration

[1] = Receptor activity EC50, allosteric potency at EC20 acetylcholine, M2-GIRK1/4 reporter cells, in some cases mean of two or more determinations
[2] = Receptor activity EC50, M2-GIRK1/4 activation test, acetylcholine at EC20, allosteric potency, in some cases mean values from two or more determinations

Structure (SMILES) | EC50 [1] | Emax (M2-GIRK1/4 reporter cells) | EC50 [2] | Efficiency (boosting of the acetylcholine effect at EC20 acetylcholine concentration, M2-GIRK1/4 reporter cells)
O=C(NC(C(F)(F)F)C(F)(F)F)c1cn(-c2c(F)cc(F)cc2F)c2nc(N3C[C@@H](O)CC3=O)ccc2c1=O [Example 555, N-(1,1,1,3,3,3-Hexafluoropropan-2-yl)-7-[(4S)-4-hydroxy-2-oxopyrrolidin-1-yl]-4-oxo-1-(2,4,6-trifluorophenyl)-1,4-dihydro-1,8-naphthyridine-3-carboxamide] | 10 nM | 100% |  | 
CC[C@H](NC(=O)c1cn(-c2c(F)cc(F)cc2F)c2nc(N3CC(O)C4(CC4)C3)ccc2c1=O)C(F)(F)F (single isomer, unassigned) [Example 620] | 47 nM | 100% |  | 
CC[C@H](NC(=O)c1cn(-c2c(F)cc(F)cc2Cl)c2nc(N3C[C@@](C)(O)C[C@H]3C)ccc2c1=O)C(F)(F)F [Example 334, 1-(2-Chloro-4,6-difluorophenyl)-7-[(2R,4S)-4-hydroxy-2,4-dimethylpyrrolidin-1-yl]-4-oxo-N-[(2S)-1,1,1-trifluorobutan-2-yl]-1,4-dihydro-1,8-naphthyridine-3-carboxamide] |  |  | 7 nM | 
CC[C@H](NC(=O)c1cn(-c2c(F)cc(F)cc2F)c2nc(N3CCN(C)CC3)ccc2c1=O)C(F)(F)F [Example 496] | 67 nM | 89% |  | 
O=C(NC(C1CCC1)C(F)(F)F)c1cn(-c2c(F)cc(F)cc2F)c2nc(N3C[C@@H](O)CC3=O)ccc2c1=O (mixture of isomers) [Example 505, N-[1-Cyclobutyl-2,2,2-trifluoroethyl]-7-[(4S)-4-hydroxy-2-oxopyrrolidin-1-yl]-4-oxo-1-(2,4,6-trifluorophenyl)-1,4-dihydro-1,8-naphthyridine-3-carboxamide] | 6 nM | 100% |  | 
O=C(NC12CC3CC(CC(C3)C1)C2)c1cn(-c2ccc(F)cc2F)c2nc(NCCF)ccc2c1=O [Example 83, 1-(2,4-Difluorophenyl)-7-[(2-fluoroethyl)amino]-4-oxo-N-(tricyclo[3.3.1.1^3,7]dec-1-yl)-1,4-dihydro-1,8-naphthyridine-3-carboxamide] |  |  | 110 nM | 
O=C(N[C@@H](C1CC1)C(F)(F)F)c1cn(-c2c(F)cc(F)cc2F)c2nc(N3CC[C@@H](O)[C@H](O)C3)ccc2c1=O (single isomer, unassigned) [Example 616] | 37 nM | 90.5% |  | 
CCC(NC(=O)c1cn(-c2c(F)cc(F)cc2F)c2nc(N3C[C@@H](O)CC3=O)ccc2c1=O)C(C)C (single isomer, unassigned) [Example 486] | 4 nM |  |  | 100.0%
CCC(NC(=O)c1cn(-c2ccc(F)cc2F)c2nc(N(C)CC(F)F)ccc2c1=O)C(F)(F)F (racemic) [Example 114, rac-7-[(2,2-Difluoroethyl)(methyl)amino]-1-(2,4-difluorophenyl)-4-oxo-N-[1,1,1-trifluorobutan-2-yl]-1,4-dihydro-1,8-naphthyridine-3-carboxamide] |  |  | 98 nM | 
O=C(NC(CC(F)(F)F)C(F)(F)F)c1cn(-c2c(F)cc(F)cc2F)c2nc(N3C[C@@H](O)CC3=O)ccc2c1=O (mixture of isomers) [Example 606, N-[1,1,1,4,4,4-Hexafluorobutan-2-yl]-7-[(4S)-4-hydroxy-2-oxopyrrolidin-1-yl]-4-oxo-1-(2,4,6-trifluorophenyl)-1,4-dihydro-1,8-naphthyridine-3-carboxamide] | 27 nM | 98% |  | 
CC(C)C(C)NC(=O)c1cn(-c2c(F)cc(F)cc2F)c2nc(N3C[C@@H](O)CC3=O)ccc2c1=O (stereo in doubt) [Example 482, 7-[(4S)-4-Hydroxy-2-oxopyrrolidin-1-yl]-N-[(2R)-3-methylbutan-2-yl]-4-oxo-1-(2,4,6-trifluorophenyl)-1,4-dihydro-1,8-naphthyridine-3-carboxamide] | 13 nM | 98.5% |  | 
Cc1ccccc1C(NC(=O)c1cn(-c2ccc(F)cc2F)c2nc(N(C)C)ccc2c1=O)C(F)(F)F (racemic) [Example 142, rac-1-(2,4-Difluorophenyl)-7-(dimethylamino)-4-oxo-N-[2,2,2-trifluoro-1-(2-methylphenyl)ethyl]-1,4-dihydro-1,8-naphthyridine-3-carboxamide] |  |  | 110 nM | 
C[C@@H](NC(=O)c1cn(-c2c(F)cc(F)cc2F)c2nc(N3C[C@@H](O)[C@H](O)C3)ccc2c1=O)C1CC1 [Example 470, N-[(1R)-1-Cyclopropylethyl]-7-[(3R,4R)-3,4-dihydroxypyrrolidin-1-yl]-4-oxo-1-(2,4,6-trifluorophenyl)-1,4-dihydro-1,8-naphthyridine-3-carboxamide] | 104 nM | 98.5% |  | 
CCC(NC(=O)c1cn(-c2ccc(F)cc2F)c2nc(N(C)C)ccc2c1=O)C(F)(F)F (racemic) [Example 146, rac-1-(2,4-Difluorophenyl)-7-(dimethylamino)-4-oxo-N-(1,1,1-trifluorobutan-2-yl)-1,4-dihydro-1,8-naphthyridine-3-carboxamide] |  |  | 26 nM | 
CCC(COC(F)(F)F)NC(=O)c1cn(-c2c(F)cc(F)cc2F)c2nc(N3C[C@@H](O)CC3=O)ccc2c1=O (single isomer, unassigned) [Example 411] | 21 nM | 100% |  | 
O=C(N[C@@H](C1CC1)C(F)(F)F)c1cn(-c2c(F)cc(F)cc2F)c2nc(N3CCOC(CO)C3)ccc2c1=O (single isomer, unassigned) [Example 464, N-[(1 S)-1-Cyclopropyl-2,2,2-trifluoroethyl]-7-[2-(hydroxymethyl)morpholin-4-yl]-4-oxo-1-(2,4,6-trifluorophenyl)-1,4-dihydro-1,8-naphthyridine-3-carboxamide] | 128 nM | 82.5% |  | 
Cc1cccc(C)c1NC(=O)c1cn(-c2ccc(F)cc2F)c2nc(N(C)C)ccc2c1=O [Example 54, 1-(2,4-Difluorophenyl)-7-(dimethylamino)-N-(2,6-dimethylphenyl)-4-oxo-1,4-dihydro-1,8-naphthyridine-3-carboxamide] |  |  | 85 nM | 
O=C(N[C@@H](C1CC1)C(F)(F)F)c1cn(-c2c(F)cc(F)cc2F)c2nc(N3CC(O)C4(CC4)C3)ccc2c1=O (mixture of isomers) [Example 600, N-[(1S)-1-Cyclopropyl-2,2,2-trifluoroethyl]-7-[7-hydroxy-5-azaspiro[2.4]hept-5-yl]-4-oxo-1-(2,4,6-trifluorophenyl)-1,4-dihydro-1,8-naphthyridine-3-carboxamide] | 28 nM | 96.9% |  | 
CC1CC(=O)N(c2ccc3c(=O)c(C(=O)NC(C4CC4)C(F)(F)F)cn(-c4c(F)cc(F)cc4F)c3n2)C1 (stereo in doubt) [Example 420, N-[(1R)-1-cyclopropyl-2,2,2-trifluoroethyl]-7-[4-methyl-2-oxopyrrolidin-1-yl]-4-oxo-1-(2,4,6-trifluorophenyl)-1,4-dihydro-1,8-naphthyridine-3-carboxamide] | 16 nM | 97.5% |  | 
O=C(NC12CC3CC(CC(C3)C1)C2)c1cn(-c2ccc(F)cc2F)c2nc(N3CCCC(O)C3)ccc2c1=O (racemic) [Example 14, rac-1-(2,4-Difluorophenyl)-7-(3-hydroxypiperidin-1-yl)-4-oxo-N-(tricyclo[3.3.1.1^3,7]dec-1-yl)-1,4-dihydro-1,8-naphthyridine-3-carboxamide] |  |  | 82 nM | 
O=C(NC(c1ccccc1Cl)C(F)(F)F)c1cn(-c2ccc(F)cc2F)c2nc(N3CC[C@H](O)C3=O)ccc2c1=O (stereo partly drawn) [Example 298, N-[1-(2-Chlorophenyl)-2,2,2-trifluoroethyl]-1-(2,4-difluorophenyl)-7-[(3S)-3-hydroxy-2-oxopyrrolidin-1-yl]-4-oxo-1,4-dihydro-1,8-naphthyridine-3-carboxamide] |  |  | 74 nM | 
CN(C)c1ccc2c(=O)c(C(=O)NC(c3ccccc3Cl)C(F)(F)F)cn(-c3ccc(F)cc3F)c2n1 (racemic) [Example 48, rac-N-[1-(2-Chlorophenyl)-2,2,2-trifluoroethyl]-1-(2,4-difluorophenyl)-7-(dimethylamino)-4-oxo-1,4-dihydro-1,8-naphthyridine-3-carboxamide] |  |  | 110 nM | 
O=C(N[C@H](C1CC1)C(F)(F)F)c1cn(-c2c(F)cccc2F)c2nc(N3CCNC3=O)ccc2c1=O [Example 629, N-[(1R)-1-Cyclopropyl-2,2,2-trifluoroethyl]-1-(2,6-difluorophenyl)-4-oxo-7-(2-oxoimidazolidin-1-yl)-1,4-dihydro-1,8-naphthyridine-3-carboxamide] | 44 nM | 100% |  | 
O=C(N[C@@H](C1CC1)C(F)(F)F)c1cn(-c2c(F)cccc2Cl)c2nc(N3C[C@@H](O)[C@H](O)C3)ccc2c1=O [Example 347, 1-(2-Chloro-6-fluorophenyl)-N-[(1 S)-1-cyclopropyl-2,2,2-trifluoroethyl]-7-[(3R,4R)-3,4-dihydroxypyrrolidin-1-yl]-4-oxo-1,4-dihydro-1,8-naphthyridine-3-carboxamide] |  |  | 34 nM | 
CCCC(NC(=O)c1cn(-c2ccc(F)cc2F)c2nc(NCC(F)F)ccc2c1=O)C(F)(F)F (stereo not drawn) [Example 124, 7-[(2,2-Difluoroethyl)amino]-1-(2,4-difluorophenyl)-4-oxo-N-[1,1,1-trifluoropentan-2-yl]-1,4-dihydro-1,8-naphthyridine-3-carboxamide] |  |  | 155 nM | 
